Data published in paper PMC2644050 (The Journal of pharmacology and experimental therapeutics, 2008).

What was measured:
[1] = target: T1, human muscarinic M4 receptor (CHO M4) (Homo sapiens, UniProt P08173); assay: inhibition of forskolin-stimulated cAMP accumulation, [3H]adenine pre-labeling; type: cell-based; conditions: CHO M4 cells, Gi pathway, 10 μM forskolin; agonist
T1 sequence (P08173 1-479): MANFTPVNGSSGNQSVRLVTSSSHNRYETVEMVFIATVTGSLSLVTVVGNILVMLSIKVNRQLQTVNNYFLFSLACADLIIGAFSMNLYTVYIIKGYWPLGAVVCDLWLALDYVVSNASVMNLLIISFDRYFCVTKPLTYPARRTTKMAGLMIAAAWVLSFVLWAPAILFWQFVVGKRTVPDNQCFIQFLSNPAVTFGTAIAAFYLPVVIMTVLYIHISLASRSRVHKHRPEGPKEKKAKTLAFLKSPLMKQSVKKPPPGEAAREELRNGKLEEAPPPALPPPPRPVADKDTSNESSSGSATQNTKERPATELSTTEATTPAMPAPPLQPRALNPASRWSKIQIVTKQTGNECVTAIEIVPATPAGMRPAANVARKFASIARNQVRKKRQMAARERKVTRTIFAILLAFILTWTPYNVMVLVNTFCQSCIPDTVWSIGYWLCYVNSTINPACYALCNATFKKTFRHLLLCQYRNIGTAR

[2] = target: T2, human muscarinic M1 receptor (CHO M1) (Homo sapiens, UniProt P11229); assay: stimulation of phosphoinositide hydrolysis, [3H]inositol pre-labeling; type: cell-based
T2 sequence (P11229 1-460): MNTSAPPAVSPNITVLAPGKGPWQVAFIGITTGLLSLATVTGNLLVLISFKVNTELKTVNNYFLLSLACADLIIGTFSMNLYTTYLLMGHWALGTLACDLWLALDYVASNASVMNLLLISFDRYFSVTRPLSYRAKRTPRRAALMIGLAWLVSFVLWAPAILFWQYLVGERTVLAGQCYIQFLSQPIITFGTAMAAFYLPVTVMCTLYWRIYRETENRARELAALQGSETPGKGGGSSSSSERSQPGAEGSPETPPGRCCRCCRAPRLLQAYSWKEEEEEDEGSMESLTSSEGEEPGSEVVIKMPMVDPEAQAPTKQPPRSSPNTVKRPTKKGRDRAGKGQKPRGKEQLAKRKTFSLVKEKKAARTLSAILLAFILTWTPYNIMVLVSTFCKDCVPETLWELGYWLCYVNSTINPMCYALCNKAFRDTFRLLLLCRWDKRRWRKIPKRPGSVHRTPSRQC

Question: With `C[N+](C)(C)CC#CCN1CCCC1=O` [oxotremorine-M] as the compound, how does the “EC50 (μM)” value [1] read?
Answer: 0.030 (−7.52 ± .07) μM

Question: And the “EC50 (μM)” value [2]?
Answer: 0.041 (−7.39 ± .05) μM
